# Results from PubChem BioAssay (NCI).
# Values joined by “and” are separate entries in the source; they are usually repeats but may differ in a detail not shown here. Identical values can stand only once.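 Growth conditions: 96-well plates. Treatment: test compound, 48 hours, 5 concentrations. Analysis: linear interpolation between bracketing concentrations; unreached endpoints set to highest concentration. Here, GI50 denotes the concentration required for 50% inhibition of growth. TGI: total growth inhibition.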
# Columns and labels:
# Experiment in all cases: NCI-60 cell line screen, 48 h
# SK-MEL-28 melanoma = test system: SK-MEL-28 melanoma
# HCT-116 colon = test system: HCT-116 colon
# HCT-15 colon = test system: HCT-15 colon
# HCC-2998 colon = test system: HCC-2998 colon
# M14 melanoma = test system: M14 melanoma
# HL-60(TB) leukemia = test system: HL-60(TB) leukemia
# A549 NSCLC = test system: A549 NSCLC
# SF-295 CNS = test system: SF-295 CNS
# RPMI-8226 leukemia = test system: RPMI-8226 leukemia
# DMS 114 small cell lung = test system: DMS 114 small cell lung
# CCRF-CEM leukemia = test system: CCRF-CEM leukemia
# NCI-H23 lung = test system: NCI-H23 lung
# CAKI-1 renal = test system: CAKI-1 renal
# DLD-1 colon = test system: DLD-1 colon
# MOLT-4 leukemia = test system: MOLT-4 leukemia
# UACC-257 melanoma = test system: UACC-257 melanoma
# NCI-H460 lung = test system: NCI-H460 lung
# SF-539 CNS = test system: SF-539 CNS
# IGROV1 ovarian = test system: IGROV1 ovarian
# SR leukemia = test system: SR leukemia
# SNB-19 CNS = test system: SNB-19 CNS
# TK-10 renal = test system: TK-10 renal
# A498 renal = test system: A498 renal
# DMS 273 small cell lung = test system: DMS 273 small cell lung
# ACHN renal = test system: ACHN renal
# NCI-H522 lung = test system: NCI-H522 lung
# UACC-62 melanoma = test system: UACC-62 melanoma
# EKVX NSCLC = test system: EKVX NSCLC
# COLO 205 colon = test system: COLO 205 colon
# KM12 colon = test system: KM12 colon
# OVCAR-8 ovarian = test system: OVCAR-8 ovarian
# M19-MEL melanoma = test system: M19-MEL melanoma
# LXFL 529 NSCLC = test system: LXFL 529 NSCLC
# OVCAR-5 ovarian = test system: OVCAR-5 ovarian
# MALME-3M melanoma = test system: MALME-3M melanoma
# HOP-92 NSCLC = test system: HOP-92 NSCLC
# OVCAR-4 ovarian = test system: OVCAR-4 ovarian
# SNB-75 CNS = test system: SNB-75 CNS
# K-562 leukemia = test system: K-562 leukemia
# SK-OV-3 ovarian = test system: SK-OV-3 ovarian
# SF-268 CNS = test system: SF-268 CNS
# UO-31 renal = test system: UO-31 renal
# SN12C renal = test system: SN12C renal
# U251 CNS = test system: U251 CNS
# XF 498 CNS = test system: XF 498 CNS
# OVCAR-3 ovarian = test system: OVCAR-3 ovarian
# KM20L2 colon = test system: KM20L2 colon
# HT29 colon = test system: HT29 colon
# SK-MEL-5 melanoma = test system: SK-MEL-5 melanoma
# SW-620 colon = test system: SW-620 colon
# SK-MEL-2 melanoma = test system: SK-MEL-2 melanoma
# HOP-62 NSCLC = test system: HOP-62 NSCLC
# 786-0 renal = test system: 786-0 renal
# NCI-H226 lung = test system: NCI-H226 lung
# LOX IMVI melanoma = test system: LOX IMVI melanoma
# SNB-78 CNS = test system: SNB-78 CNS
# RXF 393 renal = test system: RXF 393 renal
smiles,measurement,setting,value
CC(C)OP(=O)(OC(C)C)/C(F)=N/Nc1ccc([N+](=O)[O-])cc1,TGI,SK-MEL-28 melanoma,> 100 µM
same,TGI,HCT-116 colon,> 100 µM
same,TGI,HCT-15 colon,> 100 µM
same,TGI,HCC-2998 colon,> 100 µM
same,TGI,M14 melanoma,> 100 µM
same,TGI,HL-60(TB) leukemia,> 100 µM
same,TGI,A549 NSCLC,> 100 µM
same,TGI,SF-295 CNS,> 100 µM
same,TGI,RPMI-8226 leukemia,> 100 µM
same,TGI,DMS 114 small cell lung,> 100 µM
same,TGI,CCRF-CEM leukemia,> 100 µM
same,TGI,NCI-H23 lung,> 100 µM
same,TGI,CAKI-1 renal,> 100 µM
same,TGI,DLD-1 colon,> 100 µM
same,TGI,MOLT-4 leukemia,> 100 µM
same,TGI,UACC-257 melanoma,> 100 µM
same,TGI,NCI-H460 lung,> 100 µM
same,TGI,SF-539 CNS,> 100 µM
same,TGI,IGROV1 ovarian,> 100 µM
same,TGI,SR leukemia,> 100 µM
same,TGI,SNB-19 CNS,> 100 µM
same,TGI,TK-10 renal,> 100 µM
same,TGI,A498 renal,> 100 µM
same,TGI,DMS 273 small cell lung,> 100 µM
same,TGI,ACHN renal,> 100 µM
same,TGI,NCI-H522 lung,> 100 µM
same,TGI,UACC-62 melanoma,> 100 µM
same,TGI,EKVX NSCLC,> 100 µM
same,TGI,COLO 205 colon,> 100 µM
same,TGI,KM12 colon,> 100 µM
same,TGI,OVCAR-8 ovarian,> 100 µM
same,TGI,M19-MEL melanoma,> 100 µM
same,TGI,LXFL 529 NSCLC,> 100 µM
same,TGI,OVCAR-5 ovarian,> 100 µM
same,TGI,MALME-3M melanoma,> 100 µM
same,TGI,HOP-92 NSCLC,> 100 µM
same,TGI,OVCAR-4 ovarian,> 100 µM
same,TGI,SNB-75 CNS,> 100 µM
same,TGI,K-562 leukemia,> 100 µM
same,TGI,SK-OV-3 ovarian,> 100 µM
same,TGI,SF-268 CNS,> 100 µM
same,TGI,UO-31 renal,> 100 µM
same,TGI,SN12C renal,> 100 µM
same,TGI,U251 CNS,> 100 µM
same,TGI,XF 498 CNS,> 100 µM
same,TGI,OVCAR-3 ovarian,> 100 µM
same,TGI,KM20L2 colon,> 100 µM
same,TGI,HT29 colon,> 100 µM
same,TGI,SK-MEL-5 melanoma,> 100 µM
same,TGI,SW-620 colon,> 100 µM
same,TGI,SK-MEL-2 melanoma,> 100 µM
same,TGI,HOP-62 NSCLC,> 100 µM
O=C1OC(Cl)C(N=P(c2ccccc2)(c2ccccc2)c2ccccc2)=C1Cl (configuration not stated),TGI,SK-MEL-28 melanoma,> 100 µM
same,TGI,HCT-116 colon,> 100 µM
same,TGI,HCC-2998 colon,> 100 µM
same,TGI,M14 melanoma,> 100 µM
same,TGI,HL-60(TB) leukemia,> 100 µM
same,TGI,A549 NSCLC,> 100 µM
same,TGI,SF-295 CNS,> 100 µM
same,TGI,RPMI-8226 leukemia,> 100 µM
same,TGI,DMS 114 small cell lung,> 100 µM
same,TGI,CCRF-CEM leukemia,> 100 µM
same,TGI,NCI-H23 lung,> 100 µM
same,TGI,CAKI-1 renal,> 100 µM
same,TGI,DLD-1 colon,> 100 µM
same,TGI,MOLT-4 leukemia,> 100 µM
same,TGI,UACC-257 melanoma,> 100 µM
same,TGI,SF-539 CNS,> 100 µM
same,TGI,IGROV1 ovarian,> 100 µM
same,TGI,SR leukemia,> 100 µM
same,TGI,SNB-19 CNS,> 100 µM
same,TGI,TK-10 renal,> 100 µM
same,TGI,A498 renal,> 100 µM
same,TGI,DMS 273 small cell lung,> 100 µM
same,TGI,NCI-H522 lung,> 100 µM
same,TGI,UACC-62 melanoma,> 100 µM
same,TGI,EKVX NSCLC,> 100 µM
same,TGI,COLO 205 colon,> 100 µM
same,TGI,KM12 colon,> 100 µM
same,TGI,OVCAR-8 ovarian,> 100 µM
same,TGI,786-0 renal,> 100 µM
same,TGI,NCI-H226 lung,> 100 µM
same,TGI,M19-MEL melanoma,> 100 µM
same,TGI,LXFL 529 NSCLC,> 100 µM
same,TGI,MALME-3M melanoma,> 100 µM
same,TGI,HOP-92 NSCLC,> 100 µM
same,TGI,OVCAR-4 ovarian,> 100 µM
same,TGI,LOX IMVI melanoma,> 100 µM
same,TGI,SNB-75 CNS,85.4 µM
same,TGI,K-562 leukemia,> 100 µM
same,TGI,SK-OV-3 ovarian,> 100 µM
same,TGI,SF-268 CNS,> 100 µM
same,TGI,UO-31 renal,> 100 µM
same,TGI,SN12C renal,> 100 µM
same,TGI,SNB-78 CNS,> 100 µM
same,TGI,XF 498 CNS,> 100 µM
same,TGI,OVCAR-3 ovarian,> 100 µM
same,TGI,HT29 colon,> 100 µM
same,TGI,SK-MEL-5 melanoma,> 100 µM
same,TGI,SW-620 colon,> 100 µM
same,TGI,SK-MEL-2 melanoma,> 100 µM
same,TGI,HOP-62 NSCLC,> 100 µM
NCCSSC/C=C\CSSCCN,GI50,SK-MEL-28 melanoma,56 µM and 24.7 µM
same,TGI,SK-MEL-28 melanoma,> 100 µM and 77.8 µM
same,TGI,HCT-116 colon,> 100 µM
same,TGI,HCT-15 colon,> 100 µM
same,TGI,M14 melanoma,> 100 µM and 42.5 µM
same,TGI,HL-60(TB) leukemia,29.6 µM and 45.7 µM
same,GI50,SF-295 CNS,> 90.3 µM and 27.6 µM
same,TGI,SF-295 CNS,> 100 µM and 80.8 µM
same,TGI,RPMI-8226 leukemia,99.5 µM and 58.8 µM
same,TGI,DMS 114 small cell lung,> 95.1 µM and 44 µM
same,TGI,CCRF-CEM leukemia,68.6 µM
same,TGI,NCI-H23 lung,> 100 µM
same,TGI,CAKI-1 renal,> 100 µM
same,GI50,DLD-1 colon,33.8 µM and 15.6 µM
same,TGI,DLD-1 colon,> 100 µM and 34.9 µM
same,TGI,MOLT-4 leukemia,65.2 µM and 53.9 µM
same,TGI,RXF 393 renal,> 100 µM
same,GI50,UACC-257 melanoma,76.8 µM and 29 µM
same,TGI,UACC-257 melanoma,> 100 µM
same,GI50,NCI-H460 lung,98.4 µM and 22.2 µM
same,TGI,NCI-H460 lung,> 100 µM and 51.9 µM
same,TGI,SF-539 CNS,70.5 µM and 36.5 µM
same,TGI,DMS 273 small cell lung,> 100 µM and 60.8 µM
same,TGI,NCI-H522 lung,31.4 µM and 29.1 µM
same,GI50,UACC-62 melanoma,41.2 µM and 20.2 µM
same,TGI,UACC-62 melanoma,> 100 µM and 41.6 µM
same,GI50,COLO 205 colon,42.7 µM and 18.4 µM
same,TGI,COLO 205 colon,> 100 µM and 34 µM
same,GI50,KM12 colon,65 µM and 23.4 µM
same,TGI,KM12 colon,> 100 µM and 62 µM
same,TGI,OVCAR-8 ovarian,> 69.5 µM and 34.6 µM
same,GI50,786-0 renal,56.4 µM and 27.1 µM
same,TGI,786-0 renal,> 100 µM and 82 µM
same,TGI,M19-MEL melanoma,> 100 µM and 95.2 µM
same,TGI,LXFL 529 NSCLC,> 67.2 µM and 44.6 µM
same,GI50,MALME-3M melanoma,> 40.4 µM and 17.8 µM
same,TGI,MALME-3M melanoma,> 55.8 µM and 78 µM
same,TGI,HOP-92 NSCLC,> 100 µM
same,TGI,OVCAR-4 ovarian,77.3 µM and 41.2 µM
same,GI50,LOX IMVI melanoma,26.2 µM and 13 µM
same,TGI,LOX IMVI melanoma,> 59.9 µM and 27.9 µM
same,TGI,SNB-75 CNS,> 100 µM
same,GI50,K-562 leukemia,6.31 µM and 15.7 µM
same,TGI,K-562 leukemia,25.4 µM and 40.5 µM
same,GI50,SF-268 CNS,> 64.9 µM and 29.5 µM
same,TGI,SF-268 CNS,> 100 µM
same,GI50,SN12C renal,43.5 µM and 19 µM
same,TGI,SN12C renal,> 100 µM and 38 µM
same,TGI,U251 CNS,> 100 µM and 67.4 µM
same,TGI,SNB-78 CNS,> 100 µM
same,GI50,XF 498 CNS,79.7 µM and 21.6 µM
same,TGI,XF 498 CNS,> 100 µM and 69.5 µM
same,GI50,OVCAR-3 ovarian,> 68.6 µM and 25.1 µM
same,TGI,OVCAR-3 ovarian,> 100 µM and 67.1 µM
same,GI50,KM20L2 colon,76.3 µM and 21.6 µM
same,TGI,KM20L2 colon,> 100 µM and 45 µM
same,TGI,HT29 colon,> 100 µM and 58.9 µM
same,GI50,SK-MEL-5 melanoma,> 85.7 µM and 26.9 µM
same,TGI,SK-MEL-5 melanoma,> 100 µM and 77.9 µM
same,TGI,SW-620 colon,> 64.8 µM and 28.3 µM
